Data from US20130245081A1, “Compositions and Methods for Treating Amyotrophic Lateral Sclerosis” (priority 2009, published 2013).
Several values for one entry are separate records, joined by “and”; a condition that tells them apart may be missing. Equal values may be shown once. Read-outs that look alike come from different tables or passages of the source.

Tested on: patients with ALS
[1] = 50 mg, through the end of the study
[2] = 300 mg, No Riluzole Use, through Week 28
[3] = 300 mg, Riluzole Use, through Week 28
[4] = 300 mg, any post-baseline visit
[5] = 300 mg, double-blind treatment period
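Also: adverse event data gathered at every clinic visit and phone contact, after first study drug dose, in a blinded trial, counts of affected subjects.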

Structure (SMILES): CCCN[C@@H]1CCc2nc(N)sc2C1 [dexpramipexole, (6R)-2-amino-4,5,6,7-tetrahydro-6-(propylamino)benzothiazole]
- ≧1 serious treatment-related TEAE [1]: 1 (2%) N (%)
- ≧1 severe TEAE [1]: 13 N (%) and 13 (27%) N (%)
- ≧1 treatment-related TEAE [1]: 16 (33%) N (%)
- subjects with increase from baseline in QTcF >30 msec (300 mg): 5 subjects
- AE: Anxiety [2]: 1 (7%) N (%)
- AE: Depression [2]: 1 (7%) N (%)
- AE: Dysarthria [2]: 2 (13%) N (%)
- AE: Dysphagia [2]: 2 (13%) N (%)
- AE: Fall [2]: 4 (27%) N (%)
- AE: Muscular weakness [2]: 3 (20%) N (%)
- AE: Nausea [2]: 0 N (%)
- AE: Oedema peripheral [2]: 0 N (%)
- AE: Pharyngolaryngeal pain [2]: 1 (7%) N (%)
- AE: Salivary hypersecretion [2]: 2 (13%) N (%)
- AE: Sinusitis [2]: 0 N (%)
- AE: Urinary tract infection [2]: 1 (7%) N (%)
- AE: Anxiety [3]: 4 (14%) N (%)
- AE: Depression [3]: 4 (14%) N (%)
- AE: Dysarthria [3]: 3 (10%) N (%)
- AE: Dysphagia [3]: 2 (7%) N (%)
- AE: Fall [3]: 7 (24%) N (%)
- AE: Headache [3]: 2 N (%) and 2 (7%) N (%)
- AE: Muscular weakness [3]: 4 (14%) N (%)
- AE: Oedema peripheral [3]: 1 (3%) N (%)
- AE: Pharyngolaryngeal pain [3]: 2 (7%) N (%)
- AE: Salivary hypersecretion [3]: 3 (10%) N (%)
- AE: Urinary tract infection [3]: 3 (10%) N (%)
- incidence of ECGs with QTcB increased >30 msec from baseline [4]: 30%
- subjects with QTcF interval >450 msec [4]: 3 subjects
- AEs related to ALS as assessed by the Investigator [5]: 80%
- hemoglobin value in 1 subject (potentially clinically significant) [5]: 7.8 g/dL
- subjects with prolonged QTcB [5]: 3 subjects
- subjects with serum chemistry abnormalities of potential clinical significance [5]: 4 subjects
- neutrophil count in 1 subject with neutropenia (300 mg, noted at baseline of the placebo washout period): 1180 µL⁻¹
- ALS-related TEAE: Affect liability (300 mg, through Week 28): 0 N (%)
- ALS-related TEAE: Arthralgia (300 mg, through Week 28): 1 (2%) N (%)
- ALS-related TEAE: Choking (300 mg, through Week 28): 0 N (%)
- ALS-related TEAE: Constipation (300 mg, through Week 28): 4 (9%) N (%)
- ALS-related TEAE: Contusion (300 mg, through Week 28): 1 (2%) N (%)
- ALS-related TEAE: Dehydration (300 mg, through Week 28): 2 (5%) N (%)
- ALS-related TEAE: Depression (300 mg, through Week 28): 1 (2%) N (%)
- ALS-related TEAE: Disease progression (300 mg, through Week 28): 2 (5%) N (%)
- ALS-related TEAE: Dysarthria (300 mg, through Week 28): 5 (11%) N (%)
- ALS-related TEAE: Dysphagia (300 mg, through Week 28): 3 (7%) N (%)
- ALS-related TEAE: Dysphasia (300 mg, through Week 28): 1 (2%) N (%)
- ALS-related TEAE: Dyspnoea (300 mg, through Week 28): 5 (11%) N (%)
- ALS-related TEAE: Dyspnoea exertional (300 mg, through Week 28): 2 (5%) N (%)
- ALS-related TEAE: Fall (300 mg, through Week 28): 10 (23%) N (%)
- ALS-related TEAE: Fatigue (300 mg, through Week 28): 2 (5%) N (%)
- ALS-related TEAE: Gastrointestinal Disorders (300 mg, through Week 28): 11 (25%) N (%)
- ALS-related TEAE: General Disorders and Administration Site Conditions (300 mg, through Week 28): 6 (14%) N (%)
- ALS-related TEAE: Increased upper airway secretion (300 mg, through Week 28): 2 (5%) N (%)
- ALS-related TEAE: Injury, Poisoning and Procedural Complications (300 mg, through Week 28): 10 (23%) N (%)
- ALS-related TEAE: Investigations (300 mg, through Week 28): 5 (11%) N (%)
- ALS-related TEAE: Metabolism and Nutrition Disorders (300 mg, through Week 28): 4 (9%) N (%)
- ALS-related TEAE: Muscle contractions involuntary (300 mg, through Week 28): 2 (5%) N (%)
- ALS-related TEAE: Muscle spasticity (300 mg, through Week 28): 1 (2%) N (%)
- ALS-related TEAE: Muscle twitching (300 mg, through Week 28): 2 (5%) N (%)
- ALS-related TEAE: Muscular weakness (300 mg, through Week 28): 7 (16%) N (%)
- ALS-related TEAE: Musculoskeletal and Connective Tissue Disorders (300 mg, through Week 28): 14 (32%) N (%)
- ALS-related TEAE: Musculoskeletal pain (300 mg, through Week 28): 3 (7%) N (%)
- ALS-related TEAE: Myalgia (300 mg, through Week 28): 0 N (%)
- ALS-related TEAE: Neck pain (300 mg, through Week 28): 1 (2%) N (%)
- ALS-related TEAE: Nervous System Disorders (300 mg, through Week 28): 10 (23%) N (%)
- ALS-related TEAE: Oedema peripheral (300 mg, through Week 28): 1 (2%) N (%)
- ALS-related TEAE: Pain in extremity (300 mg, through Week 28): 0 N (%)
- ALS-related TEAE: Psychiatric Disorders (300 mg, through Week 28): 1 (2%) N (%)
- ALS-related TEAE: Respiratory failure (300 mg, through Week 28): 0 N (%)
- ALS-related TEAE: Respiratory, Thoracic and Mediastinal Disorders (300 mg, through Week 28): 11 (25%) N (%)
- ALS-related TEAE: Salivary hypersecretion (300 mg, through Week 28): 5 (11%) N (%)
- ALS-related TEAE: Vital capacity decreased (300 mg, through Week 28): 1 (2%) N (%)
- ALS-related TEAE: Weight decreased (300 mg, through Week 28): 2 (5%) N (%)
- Number of TEAEs (300 mg, through Week 28): 303
- Number of serious TEAEs (300 mg, through Week 28): 9
- Number of serious treatment-related TEAE (300 mg, through Week 28): 1
- Number of severe TEAEs (300 mg, through Week 28): 12
- Number of treatment-related TEAEs (300 mg, through Week 28): 46
- Subjects with a TEAE with action taken of study drug discontinued (300 mg, through Week 28): 0 N (%)
- TEAE: Anxiety (300 mg, through Week 28): 5 (11%) N (%)
- TEAE: Arthralgia (300 mg, through Week 28): 3 (7%) N (%)
- TEAE: Cardiac Disorders (300 mg, through Week 28): 8 (18%) N (%)
- TEAE: Constipation (300 mg, through Week 28): 11 (25%) N (%)
